The values that follow are results of earlier work, collected in US12420242B1 (KING SAUD UNIVERSITY, priority 2025, dated 2025).

In brackets after ≈: the same amount, converted by molar mass. Like-named read-outs stand apart in the source and are kept apart here.

Experiment in data set [1]: not given
This is another data set of the same source.

With `CCCCCCC` [n-heptane], the solubility in water was 2 µg/mL (≈ 20 µM). In addition, where the note is “Table 1”, the solubility in water is 2 µg/mL (≈ 20 µM). Besides, the Density in data set [1] (Table 1) is 0.68 g · cm^−3.

In the case of `c1ccsc1` [thiophene], the results for the Density in data set [1] and in data set [1] (Table 1) were 1.05 g/mL and 1.05 g · cm^−3, respectively.

`O` [water]: the Density is recorded as 1.0 g/mL in data set [1] and 1.00 g · cm^−3 in data set [1] (Table 1).
